Results published in patent US20110105397A1, “METHOD FOR TREATING HEART FAILURE WITH STRESSCOPIN-LIKE PEPTIDES” (priority 2009, published 2011).
Where a SMILES comes first, the peptide text is derived from it. Where no end group is shown, it is not given here. The star is where a group is joined. Succinimide(1-Et,3-yl) = CCN1C(=O)CC(*)C1=O

Target: T1, human CRHR2 (Homo sapiens, UniProt Q13324)
T1 construct: expressed in transfected cells
T1 sequence (Q13324 1-411): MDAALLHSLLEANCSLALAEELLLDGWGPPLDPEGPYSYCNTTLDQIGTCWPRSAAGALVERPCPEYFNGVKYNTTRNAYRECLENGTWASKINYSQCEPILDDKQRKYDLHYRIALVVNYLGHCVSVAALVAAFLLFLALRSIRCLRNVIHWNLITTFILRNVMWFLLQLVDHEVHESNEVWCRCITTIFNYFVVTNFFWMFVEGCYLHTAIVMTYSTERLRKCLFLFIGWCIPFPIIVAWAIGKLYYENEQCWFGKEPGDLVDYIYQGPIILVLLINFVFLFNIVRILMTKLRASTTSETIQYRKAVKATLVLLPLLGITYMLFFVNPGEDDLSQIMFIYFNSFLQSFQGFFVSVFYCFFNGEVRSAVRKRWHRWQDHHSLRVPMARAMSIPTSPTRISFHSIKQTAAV
Assay: cAMP assay, h-CRHR2 transfected SK-N-MC cells
Format: cell-based
Settings: Table 13; for EC50: cysteine mutation, N-ethylmaleimide capping, pegylation, read-out: pA50 (converted); for Log DR [M]: h-SCP control pA50 minus test compound pA50 within the same assay batch
Description: The concentration required for 50% maximum effect (A50) was 0.4 nM.
Human CRHR1 (accession number X72304) or CRHR2 (accession number U34587) were cloned into pcDNA3.1/Zeo expression vector and stably transfected into SK—N-MC cells by electroporation. Cells were maintained in MEM w/Earl's Salt with 10% FBS, 50 I.U. penicillin, 50 μg/ml streptomycin, 2 mM L-glutamine, 1 mM sodium pyruvate and 0.1 mM non-essential amino acids, 600 μg/ml G418. Cells were grown at 37° C. in 5% CO2
Cells were plated in 96-well tissue culture dishes (Biocoat from BD Biosciences) overnight at 50,000 cell/well. Cells were washed with PBS then resuspended in DMEM F-12 without phenol red, containing 10 μM isobutylmethylxanthine (IBMX). Cells were incubated with the peptides at concentrations ranging from 1 pM to 10 μM for 60 min at 37° Celsius. […] Forskolin (10 μM), a direct stimulant of adenylate cyclase, was used as positive control. The assays were stopped by the addition of 0.5 M HCl and mixing by orbital rotation for 2 h at 4° Celsius.
To assess the activity of the inventive polypeptide at the CRHR2, an intracellular cAMP measurement test using a Flash plate radioactive assay (Catalog No. Cus56088; Perkin Elmer, Mass., U.S.A.) was employed.
Transfected SK—N-MC cells were plated in 96-well Biocoat tissue culture dishes (BD Biosciences, San Jose, Calif., U.S.A) overnight at 50,000 cell/well. Cells were first washed with PBS and then suspended with DMEM/F-12 without phenol red, containing […]. Suspended cells were transferred into a 96-well flash plate coated with scintillant fluid. Cells were incubated with peptides ranging from 1 pM to 1 μM, for 60 min, at 37° Celsius. Forskolin at 10 μM was used as positive control. After ligand stimulation, cells were lysed by the addition of 0.5M HCl and mixed by orbital rotation for 2 h at 4° Celsius in order to release intracellular cAMP into the media.
Media containing released intracellular cAMP was transferred to a 96-well flash plate coated with scintillant fluid containing an anti-cAMP antibody. In this assay, intracellular cAMP competes with ^125I-labeled cAMP binding to the antibody. To generate a standard curve, cAMP ranging from 2.5 to 250 pmoles/ml was included in the experiment. [^125I]-cAMP was measured on a TopCount scintillation counter (Perkin Elmer, Mass., U.S.A).
Individual agonist concentration-response curve data were fitted to the Hill equation, see formula below, using GraphPad Prism (Graphpad Software, La Jolla, Calif., U.S.A.), to provide estimates of agonist concentration needed to generate one-half maximal response (A50), and the maximal asymptote (α) and Hill slope (nH) parameters. In this equation, [A] is the agonist concentration and E is the measured effect:
For display purposes the mean fitted parameter estimates were used to generate a single E/[A] curve shown superimposed on the mean experimental data. Potency estimates for agonists, pA50, are expressed as the negative logarithm of the midpoint of each curve and listed with their standard error of measurement (SEM). Logarithm base 10 of the agonist dose ratio (Log DR) values were calculated by subtraction of the test compound pA50 value from the corresponding h-SCP (SEQ ID NO:1) control pA50 value within the same assay batch. The SEM values of the Log DR values are given by the square root of the sum of the squared SEM values of the h-SCP (SEQ ID NO:1) control and test compound pA50 values.
Human and rat peptides (see Table 10) were used on the stimulation of h-CRHR1 or h-CRHR2 transfected SK—N-MC cells in the cAMP flash plate assay. Peptides were incubated for 1 hr at 37° Celsius. Curves were calculated using non-linear regression sigmoidal concentration-response analysis calculation in GraphPad Prism. The so obtained pA50 values are shown in Table 11 in addition to literature values. […]

Compound	EC50 [nM]	Log DR [M]
CC[C@H](C)[C@H](NC(=O)[C@H](CC(N)=O)NC(=O)[C@H](Cc1ccccc1)NC(=O)[C@H](CC(C)C)NC(=O)[C@H](CC(C)C)NC(=O)[C@H](CC(N)=O)NC(=O)[C@H](CCSC)NC(=O)[C@@H](NC(=O)[C@H](CC(N)=O)NC(=O)[C@@H](NC(=O)[C@@H]1CCCN1C(=O)[C@@H](NC(=O)[C@H](CC(=O)O)NC(=O)[C@H](CC(C)C)NC(=O)[C@H](CO)NC(=O)[C@H](CC(C)C)NC(=O)[C@@H](NC(=O)[C@H](Cc1ccccc1)NC(=O)[C@H](CCCCN)NC(=O)[C@@H](N)[C@@H](C)O)[C@@H](C)O)C(C)C)[C@@H](C)O)[C@@H](C)CC)C(=O)N[C@@H](C)C(=O)N[C@@H](CCCCN)C(=O)N[C@@H](C)C(=O)N[C@@H](CCCCN)C(=O)N[C@@H](CC(N)=O)C(=O)N[C@@H](CC(C)C)C(=O)N[C@@H](CCCNC(=N)N)C(=O)N[C@@H](C)C(=O)N[C@@H](CCC(N)=O)C(=O)N[C@@H](C)C(=O)N[C@@H](C)C(=O)N[C@@H](C)C(=O)N[C@@H](CC(N)=O)C(=O)N[C@@H](C)C(=O)N[C@@H](Cc1c[nH]cn1)C(=O)N[C@@H](CC(C)C)C(=O)N[C@@H](CCSC)C(=O)N[C@@H](C)C(=O)N[C@@H](CCC(N)=O)C(=O)N[C@@H](CSC1CC(=O)N(CC)C1=O)C(N)=O (stereo partly shown) [SEQ ID NO: 42, TKFTLSLDVPTNIMNLLFNIAKAKNLRAQAAANAHLMAQC(-NES)-NH2] (H-TKFTLSLDVPTNIMNLLFNIAKAKNLRAQAAANAHLMAQC(Succinimide(1-Et,3-yl))-NH2; N-terminus assumed)	~17.8	~1.72
CC[C@H](C)[C@H](NC(=O)[C@H](CCC(N)=O)NC(=O)[C@H](C)NC(=O)[C@H](CCSC)NC(=O)[C@H](CC(C)C)NC(=O)[C@H](Cc1c[nH]cn1)NC(=O)[C@H](C)NC(=O)[C@H](CC(N)=O)NC(=O)[C@H](C)NC(=O)[C@H](C)NC(=O)[C@H](C)NC(=O)[C@H](CCC(N)=O)NC(=O)[C@H](C)NC(=O)[C@H](CCCNC(=N)N)NC(=O)[C@H](CC(C)C)NC(=O)[C@H](CC(N)=O)NC(=O)[C@H](CCCCN)NC(=O)[C@H](C)NC(=O)[C@H](CCCCN)NC(=O)[C@H](C)NC(=O)[C@@H](NC(=O)[C@H](CC(N)=O)NC(=O)[C@H](Cc1ccccc1)NC(=O)[C@H](CSC1CC(=O)N(CC)C1=O)NC(=O)[C@H](CC(C)C)NC(=O)[C@H](CC(N)=O)NC(=O)[C@H](CCSC)NC(=O)[C@@H](NC(=O)[C@H](CC(N)=O)NC(=O)[C@@H](NC(=O)[C@@H]1CCCN1C(=O)[C@@H](NC(=O)[C@H](CC(=O)O)NC(=O)[C@H](CC(C)C)NC(=O)[C@H](CO)NC(=O)[C@H](CC(C)C)NC(=O)[C@@H](NC(=O)[C@H](Cc1ccccc1)NC(=O)[C@H](CCCCN)NC(=O)[C@@H](N)[C@@H](C)O)[C@@H](C)O)C(C)C)[C@@H](C)O)[C@@H](C)CC)[C@@H](C)CC)C(N)=O (stereo partly shown) [SEQ ID NO: 53, TKFTL SLDVP TNIMN LC(-NES)FNI AKAKN LRAQA AANAH LMAQI-NH2] (H-TKFTLSLDVPTNIMNLC(Succinimide(1-Et,3-yl))FNIAKAKNLRAQAAANAHLMAQI-NH2)	~56.2	~2.22
TCFTLSLDVPTNIMNLLFNIAKAKNLRAQAAANAHLMAQI-NH2 [SEQ ID NO: 3, TCFTLSLDVPTNIMNLLFNIAKAKNLRAQAAANAHLMAQI-NH2]	1.07	0.72
TKFTLSLDVPTNIMNLLFNIAKAKNLRAQCAANAHLMAQI-NH2 [SEQ ID NO: 31, TKFTLSLDVPTNIMNLLFNIAKAKNLRAQCAANAHLMAQI-NH2]	9.55	1.61
H-TKFTLSLDVPTNCMNLLFNIAKAKNLRAQAAANAHLMAQI-NH2 [SEQ ID NO: 14, TKFTLSLDVPTNCMNLLFNIAKAKNLRAQAAANAHLMAQI-NH2]	~45.7	>2
